Measured values taken from US9848603B2, “Methods for protecting plants with antifungal compositions” (priority 2008, dated 2017).

What was measured:
[1] = tested on: Spodoptera frugiperda (Sf21) insect cells; assay: Effect of NaD1 on growth of insect cells
Protocol: The effect of NaD1 on the growth of Insect cells was determined as follows. Spodoptera frugiperda (Sf21) insect cells were grown to ˜90% confluency in Sf-900 II serum free media (Gibco™, 20 mL) in a 75 cm^2 tissue culture flask with a vented cap (Nunc). Cells were then split one in two with fresh media. Cell suspension was added to 96-well flat-bottomed microtitre plate wells (190 μL/well) and the cells were allowed to settle for 30 min prior to addition of NaD1 (10 μL) to give a final concentration of 0-10 μM. Growth was monitored until the cells reached confluency (˜48 h).

[2] = tested on: Fov hyphae; assay: Detection of reactive oxygen species (DHR123 oxidation) in response to NaD1; conditions: NaD1 0.1, 2 and 10 μM or 10 μM NaD1R&A
[3] = tested on: Fov hyphae; assay: Uptake of FITC-labeled dextrans into NaD1-treated hyphae
Protocol: The uptake of FITC-labeled dextran with NaD1 treatment of fungal hyphae was also studied. Fov hyphae were grown as described above and incubated with NaD1 (final concentration 0.1, 2, 10 or 50 μM) or an equivalent volume of water for 2 h at RT with gentle agitation. Hyphae were washed twice for 10 min with half-strength PDB to remove excess NaD1 before FITC dextrans of either 4 kDa (FD-4, Sigma-Aldrich) or 10 kDa (FD-10, Sigma-Aldrich) were added to a final concentration of 1 mg/mL. Hyphae were incubated for a further 30 min at RT and then washed twice with half strength PDB to remove excess dextrans. Fluorescence microscopy was used to visualize hyphae as described for SYTOX® green. A second assay was performed under the same conditions except the dextrans were added at the same time as NaD1.

[4] = tested on: Fov hyphae; assay: Membrane permeabilization of Fov hyphae, SYTOX green uptake; type: cell-based, Fusarium oxysporum f. sp. vasinfectum
[5] = tested on: F. graminearum hyphae; type: cell-based, Fusarium graminearum; conditions: various concentrations of NaD1
[6] = tested on: Leptosphaeria maculans; type: cell-based; conditions: read-out: NaD1 IC50
[7] = tested on: filamentous fungi; type: cell-based; conditions: Fov, F. graminearum, F. oxysporum f. sp. dianthi and lycopersici, F. solani, F. pseudograminearum, C. heterostrophus, A. brassicola, G. graminis var. tritici, T. basicola, V. dahliae, A. nidulans, S. sclerotiorum, B. cinerea, L. maculans
[8] = tested on: HeLa cells
Protocol: To examine the effect of NaD1 on mammalian cell growth, HeLa cells were seeded at 50% in Dulbecco's modified Eagle's medium (Gibco™-BRL) containing 10% (v/v) fetal calf serum with or without NaD1 (10 μM) at 37° C. under an atmosphere of 5% CO2 and 95% air in a 60 mm Petri dish. Cells were incubated for 48 h at 37° C. before they were stained with trypan blue to check viability and counted using a haemocytometer.

[9] = tested on: Bacillus cereus; assay: Effect of NaD1 on bacterial growth; type: cell-based
[10] = tested on: Fusarium oxysporum f. sp. vasinfectum (Fov); assay: Growth cabinet bioassay of transgenic and non-transgenic cotton seed coated with fungicide in Fov infected soil; conditions: transgenic Coker expressing NaD1, seeds not coated with fungicide
Protocol: The assay was conducted as described for the glasshouse assay except for the following modifications.
Thirty seeds were planted for each test (transgenic and non-transgenic, coated and non-coated seed). Seed was sown directly into the containers, 24 seed per box in a 4×6 array. Six seed for each test were sown randomly in each box. Seeds were germinated for 7 days, conditions were 16 hours light at 30° C. and 8 hours dark at 15° C., with a ramp of 2° C. per hour. For the remainder of the experiment the conditions were 16 hours light at 25° C. and 8 hours dark at 10° C. with a ramp of 2° C. per hour.
Plants were grown for 4 weeks. Foliar symptom development was measured throughout the trial and disease score was determined by destructive sampling at the end of the trial. The following rating was used to determine the disease score: 0=no symptoms, 1=vascular browning to base of stem, 2=vascular browning to cotyledons, 3=vascular browning past cotyledons, 4=vascular browning to true leaves, 5=dead. The average disease score was an average for all seeds that germinated.

[11] = tested on: Fusarium graminearum; type: cell-based; conditions: defensin in combination with the triazole tebuconazole
[12] = tested on: Fusarium oxysporum f. sp. vasinfectum (Fov); assay: Field trial of transgenic and non-transgenic cotton seed coated with fungicide in Fov infected soil; conditions: NaD1 expressed in transgenic line 35.125.1, coated or uncoated
Protocol: Seed of the two lines were either not coated with fungicide or were coated with the fungicide HEC5725 (active ingredient fluoxastrobin, Bayer CropScience, batch number 06529/0022) at a rate of 1 mL/kg of seed, or with the commercial seed coat fungicides Dynasty® (Registered Trademark) (active ingredients 75 g/L azoxystrobin, 37.5 g/L metalaxyl-m, 12.5 g/L fludioxonil, Syngenta) at a rate of 2 mL/kg of seed, Jockey® (Registered Trademark) (active ingredient 167 g/L fluquinconazole, Bayer CropScience) at a rate of 20 mL/kg of seed or Redigo® (Registered Trademark) (active ingredient 100 g/L prothioconazole, Bayer CropScience) at a rate of 1 mL/kg of seed. All seed (coated and uncoated with fungicide) was coated with the insecticide Gaucho® (Registered Trademark) (600 g/L imidacloprid, Bayer CropScience) to control early season thrips and aphids. Seed was prepared to ensure even coating of fungicide and insecticide and allowed to dry prior to sowing.
Plants were grown at a farm in the Darling Downs region of Queensland, Australia. Seed was mechanically planted into soil known to be infected with Fusarium oxysporum f.sp. vasinfectum. […]
Emergence and plant survival were recorded. […] Statistical significance of the interaction of plant line and mortality was calculated using a Pearson's chi-square test.

[13] = tested on: Fusarium oxysporum f. sp. vasinfectum (Fov); assay: Glasshouse bioassay of transgenic and non-transgenic cotton seed coated with fungicide in Fov infected soil; conditions: transgenic Coker expressing NaD1, seeds not coated with fungicide
Protocol: Cultures of Fov (isolate #24500 VCG 01111) were prepared in millet and incorporated into a soil mix. The infected soil was used to grow line 35.125.1 and non-transgenic Coker 315. The culture of Fov was prepared in ½ strength PDB (12 g/L potato dextrose) and grown for approximately one week at 26° C. The culture (5 to 10 mL) was used to infect autoclaved hulled millet which was then grown for 2 to 3 weeks at room temperature. The infected millet was incorporated into a pasteurized peat based soil mix at 1% (v/v), by vigorous mixing in a 200 L compost tumbler. The infected soil was transferred to plastic containers (10 L of mix per 13.5 L container).
The cotton seed was either non-coated or coated with the fungicide HEC5725 (active ingredient Fluoxastrobin, Bayer Crop Science, batch number 06529/0022) at a rate of 1 mL/kg of seed and allowed to dry prior to sowing. Water was added to facilitate even coating of the seed (62.5 mL/kg of seed). Untreated samples were treated with water only.
Forty eight seeds were planted for each test (transgenic and non-transgenic, coated and non-coated seed). Seed was sown directly into the containers, 12 seed per box in a 3×4 array. […]
Plants were grown for 7 weeks. Foliar symptom development was measured throughout the trial and disease score was determined by destructive sampling at the end of the trial. […]

[14] = tested on: Fov; conditions: transgenic cotton variety expressing NaD1, field trials; cited from earlier work
[15] = tested on: Fusarium oxysporum f. sp. vasinfectum (Fov); type: cell-based; conditions: read-out: NaD1 IC50
[16] = tested on: F. graminearum hyphae; type: cell-based, Fusarium graminearum
[17] = tested on: Escherichia coli; assay: Effect of NaD1 on bacterial growth; type: cell-based
[18] = tested on: Thielaviopsis basicola; type: cell-based; conditions: read-out: NaD1 IC50
[19] = tested on: Pichia pastoris; assay: Effect of NaD1 on growth of yeast strains
Protocol: (§1) The effect of NaD1 on the growth of the yeast strains Candida albicans, Pichia pastoris and Saccharomyces cerevisiae (from Department of Microbiology, La Trobe University) was assayed in microtitre plates. Cells were grown in YPD for 48 h, then counted using a haemocytometer and diluted to a concentration of 5×10^4 cells/mL in fresh YPD. Cell suspension (100 μL) containing 0-10 μM NaD1 was added to the wells of a 96-well microtitre plate and incubated for 48 h at 30° C. Growth was determined by measuring the optical density at 595 nm using a microtitre plate reader. Each test was performed in quadruplicate.

[20] = tested on: Fov hyphae; assay: Immunogold electron microscopy of NaD1-treated hyphae; type: cell-based, Fusarium oxysporum f. sp. vasinfectum; conditions: NaD1 (10 μM) for 2 h
[21] = tested on: Leptosphaeria maculans; assay: Fungal glasshouse bioassay of transgenic canola seedlings expressing NaD1; type: in vivo, canola (Brassica napus); conditions: NaD1 expressed in transgenic canola line CAT13.26
[22] = tested on: Staphylococcus aureus; assay: Effect of NaD1 on bacterial growth; type: cell-based
[23] = tested on: Candida albicans; assay: Effect of NaD1 on growth of yeast strains
Protocol: as §1

[24] = tested on: Pseudomonas aeruginosa; assay: Effect of NaD1 on bacterial growth; type: cell-based
[25] = tested on: Verticillium dahliae; type: cell-based; conditions: read-out: NaD1 IC50
[26] = tested on: Fusarium graminearum; assay: microbe, parasite or virus in culture; type: cell-based
[27] = tested on: Aspergillus nidulans; type: cell-based; conditions: read-out: NaD1 IC50
[28] = tested on: Fov; assay: Effect of metal ions (CaCl2, MgCl2) on NaD1 activity against Fov; conditions: NaD1 10 μM; growth of Fov
Protocol: The activity of NaD1 against Fov was examined as described with varying concentrations of CaCl2 (0.1, 0.2, 0.5, 1.0 and 2.0 μM) or MgCl2 (1.0, 2.0, 10, 20 and 50 μM) present in the medium to determine the effects of divalent cations on NaD1 activity.

[29] = tested on: Fov hyphae; assay: Isolation of NaD1 from treated hyphae (SDS-PAGE and immunoblotting of cytoplasmic contents)
Protocol: Fov hyphae were grown as described above prior to the addition of NaD1 (10 μM final concentration) to 1 mL of the culture. Samples (100 μL) were collected after 0, 5, 10, 30, 60, 90 and 120 min. Hyphae were collected by centrifugation (10 min, 10,000×g) and the supernatant was stored at −20° C. for analysis. Hyphae were washed (2×10 min) with KCl (0.6 M) to remove any ionically bound protein before they were resuspended in 50 mM CAPS buffer (pH 10.0) containing 10 mM DTT for 20 min. Hyphae were collected by centrifugation and the supernatant, containing cell wall proteins, was collected for analysis. The pellet (containing cells) was resuspended in water and the cells were lysed using glass beads (Sigma, 60 mg) and vortexing (3×10 min). Cellular debris was removed by centrifugation (16,000×g, 10 min) and the supernatant collected for analysis. All samples were then analyzed by SDS-PAGE and immunoblotting.

[30] = tested on: Verticillium dahliae; assay: Field trial of transgenic and non-transgenic cotton seed coated with fungicide in Verticillium dahliae infected soil; type: in vivo
[31] = tested on: Saccharomyces cerevisiae; assay: Effect of NaD1 on growth of yeast strains
Protocol: as §1

[32] = read-out: NaD1 IC50, growth inhibition

In the case of “NaD1: plant defensin isolated from floral tissue of Nicotiana alata; also expressed in transgenic cotton line 35.125.1 and canola line CAT13.26 (RECKTESNTFPGICITKPPCRKACISEKFTDGHCSKILRRCLCTKPC; listed as Nicotiana alata)”, the toxicity to cells ([1]; Spodoptera frugiperda Sf-21 insect cells) is reported as “not toxic”, the IC50 ([1]; read-out: NaD1 IC50, growth inhibition, Spodoptera frugiperda (Sf21)) is reported as > 10 µM and the “ROS production (DHR123 oxidation fluorescence)” value [2] is reported as “concentration-dependent increase in fluorescence”. For the same substance, the “entry of 10 kDa FITC-dextran (23 Å) into NaD1-treated hyphae” value ([3]; even at very high concentrations of NaD1) was “excluded”, the “entry of 4 kDa FITC-dextran (14 Å) into NaD1-treated hyphae” value ([3]; same NaD1 concentration that led to SYTOX green uptake) was “entered hyphae” and the “permeabilization of hyphae (SYTOX green)” value ([4]; 0.1, 2 or 10 μM NaD1 or 10 μM NaD1R&A) was “permeabilized hyphae”. For the same substance, the “NaD1 concentration up to which Vmax (maximum rate of fluorescence increase) rose linearly; saturable above” value ([4]; SYTOX green uptake) was 6.25 µM, the “time after which fluorescence began to plateau” value ([4]; SYTOX green uptake over time) was 90 min and the “NaD1 concentration up to which rate of permeabilization increased progressively” value ([4]; above this (up to 50 μM) very little difference in kinetics) was 3 µM. For the same substance, the “lag time before permeabilization” value ([4]; all NaD1 concentrations, SYTOX green uptake over time) was “around 20 min”, the “SYTOX green uptake / permeabilization” value ([4]; at 0° C. (relative to 4° C.)) was “reduced even further” and the “SYTOX green uptake / permeabilization” value ([4]; at 4° C.) was “only a small degree of permeabilization”. The “SYTOX green uptake / permeabilization” value ([4]; at 10° C. (less than at 25° C.)) was “substantial uptake of SYTOX® green”, the SYTOX green uptake ([4]; lowest concentration, 0.1 μM NaD1) was “small amount of SYTOX® green uptake” and the SYTOX green uptake [5] was “increases with increasing concentrations of NaD1”. The IC50 [6] was 0.8 µM, the “growth of filamentous fungi” value [7] was “inhibit growth” and the toxicity to cells ([8]; human HeLa cells) was “not toxic”. For the same substance, the IC50 ([8]; read-out: NaD1 IC50, growth inhibition, HeLa cells) was > 10 µM, the effect on growth ([9]; Gram-positive bacterial strain tested: Bacillus cereus) was “no effect” and the IC50 ([9]; growth inhibition, Bacillus cereus) was > 10 µM. The mortality [10] was 7%, the “synergy with tebuconazole (Io higher than Ee)” value [11] was “Synergy” and the “resistance to fungal infection relative to non-transgenic lines” value [12] was “more resistant to fungal infection than the non-transgenic lines”. The mortality [13] was “approximately half the mortality of the non-transgenic plants”, the “protection from pathological effects of Fov infection versus untransformed parent variety” value [14] was “significantly protected” and the IC50 [15] was 1 µM. The “permeabilization activity among the plant defensins (ATP release)” value ([16]; 1 μM defensin) was “highest permeabilization activity”, the ATP release ([16]; 0.125 to 10 μM NaD1) was “concentration dependant release of ATP” and the effect on growth ([17]; Gram-negative bacterial strain tested: Escherichia coli) was “no effect”. The IC50 ([17]; growth inhibition, Escherichia coli) was > 10 µM, the IC50 [18] was 0.8 µM and the effect on growth [19] was “no effect”. The IC50 [19, 32] was > 10 µM, the “anti-NaD1 immunogold labeling of cytoplasm of granulated hyphae” value [20] was “heavily labeled” and the “average lesion size versus non-transgenic plants” value ([21]; 10, 14 and 17 days after inoculation) was “significantly smaller”. For the same substance, the “disease scores versus non-transgenic RI64” value ([21]; Days 10, 14 and 17) was “significantly lower disease scores”, the effect on growth ([22]; Gram-positive bacterial strain tested: Staphylococcus aureus) was “no effect” and the IC50 ([22]; growth inhibition, Staphylococcus aureus) was > 10 µM. The effect on growth [23] was “no effect”, the IC50 [23, 32] was > 10 µM and the effect on growth ([24]; Gram-negative bacterial strain tested: Pseudomonas aeruginosa) was “no effect”. For the same substance, the IC50 ([24]; growth inhibition, Pseudomonas aeruginosa) was > 10 µM, the IC50 [25] was 0.75 µM and the “toxicity with Fusarium graminearum” value ([26]; 0.24 μM NaD1 in the absence of fungicide) was “very low”. For the same substance, the “inhibition of fungal growth” value ([26]; 0.5 μM defensin (alone)) was “about 13%”, the IC50 [27] was 0.8 µM and the “CaCl2 concentration for complete inactivation of NaD1” value [28] was < 2 mM. The “MgCl2 concentration for complete inactivation of NaD1” value [28] was 50 mM, the “antagonism of Ca2+ relative to Mg2+” value [28] was “greater than 20 times” and the “time up to which amount of NaD1 in cytoplasm increased” value ([29]; decreased slightly afterwards) was 60 min. For the same substance, the “time at which NaD1 uptake into cytoplasm occurred” value ([29]; immunoblotting of cytoplasmic contents) was 20 min, the “yield versus untransformed Coker control” value ([30]; transgenic line 35.125.1, seed coat not used) was “not significantly different” and the “uninfected plants at the end of the trial” value ([30]; transgenic line expressing NaD1, non-coated seeds) was 3.6%. The effect on growth [31] was “no effect” and the IC50 [31, 32] was > 10 µM.
